Experimental data as given in patent US5518735A, “Meta-substituted phenylalanine derivatives” (priority 1990, dated 1996).

Experiments:
[1] = Plasma concentration in rats after oral administration (HPLC); settings: rat, plasma, po, 100 mg/kg
plasma kallikrein = biological target: T1, plasma kallikrein (Homo sapiens, UniProt P03952); experiment: Inhibition of plasma kallikrein (Ki); assay type: biochemical; settings: Table 26
T1 construct: glandular kallikrein, factor XIIa and plasma kallikrein

thrombin = thrombin (Bos taurus, UniProt P00735); experiment: Inhibition of thrombin (dissociation constant Ki); assay type: biochemical
in vivo = settings: mouse
tPA = tPA (Homo sapiens, UniProt P00750); experiment: Inhibition of tPA (Ki); assay type: biochemical; settings: Table 26
Chain of tPA (P00750 36-562): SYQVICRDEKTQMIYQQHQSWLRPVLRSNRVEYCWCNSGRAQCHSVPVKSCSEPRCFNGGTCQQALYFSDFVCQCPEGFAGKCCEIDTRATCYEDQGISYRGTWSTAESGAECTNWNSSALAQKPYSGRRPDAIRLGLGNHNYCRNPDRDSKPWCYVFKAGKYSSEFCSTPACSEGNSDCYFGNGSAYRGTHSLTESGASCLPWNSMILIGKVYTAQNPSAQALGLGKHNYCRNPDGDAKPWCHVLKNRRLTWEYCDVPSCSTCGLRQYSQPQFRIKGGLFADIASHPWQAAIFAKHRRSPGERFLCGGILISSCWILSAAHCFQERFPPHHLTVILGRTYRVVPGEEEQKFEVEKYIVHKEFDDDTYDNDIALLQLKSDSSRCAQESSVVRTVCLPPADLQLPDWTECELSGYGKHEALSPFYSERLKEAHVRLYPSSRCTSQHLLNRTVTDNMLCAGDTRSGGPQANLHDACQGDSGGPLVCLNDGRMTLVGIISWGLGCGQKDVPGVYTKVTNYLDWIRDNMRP

glandular kallikrein = glandular kallikrein (Sus scrofa, UniProt P00752); experiment: Inhibition of glandular kallikrein (Ki); assay type: biochemical; settings: Table 26; read-out: Ki, Gland. Kallikrein
Chain of glandular kallikrein (P00752 8-246): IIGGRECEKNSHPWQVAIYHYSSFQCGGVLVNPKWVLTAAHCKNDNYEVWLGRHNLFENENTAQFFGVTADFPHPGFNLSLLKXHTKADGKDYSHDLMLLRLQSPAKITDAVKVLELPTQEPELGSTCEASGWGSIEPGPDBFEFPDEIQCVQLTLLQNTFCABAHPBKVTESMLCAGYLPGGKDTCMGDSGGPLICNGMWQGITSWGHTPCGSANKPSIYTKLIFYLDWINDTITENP

[2] = Plasma concentration in rats after intravenous administration (HPLC); settings: for Concentration in plasma: i.v. 1 mg/kg
Protocol: For the pharmacokinetic characterization, the plasma concentration of selected derivatives was determined in rats after intravenous (i.v.), subcutaneous (s.c.) and peroral (p.o.) application according to the following three-step procedure:
1. A physiological NaCl solution of the substance to be tested was submitted to high pressure liquid chromatography (HPLC) in order to determine its characteristic substance-specific retention time with the chosen test conditions.
2. The substance to be tested was diluted in vitro in rat plasma. This solution was also submitted to HPLC to see whether the characteristic peak of the substance once again appeared at the substance-specific retention time.
3. […] Blood samples were taken at time intervals of 15 minutes, from which plasma samples were prepared by centrifugation; those samples were also submitted to HPLC to see whether the characteristic peak of the substance appeared again at the substance-specific retention time.

factor Xa = factor Xa (Bos taurus, UniProt P00743); experiment: Inhibition of factor Xa (dissociation constant Ki); assay type: biochemical; settings: Tables 19-25; read-out: Ki, Factor Xa
Chain of factor Xa (P00743 234-492 limits assumed): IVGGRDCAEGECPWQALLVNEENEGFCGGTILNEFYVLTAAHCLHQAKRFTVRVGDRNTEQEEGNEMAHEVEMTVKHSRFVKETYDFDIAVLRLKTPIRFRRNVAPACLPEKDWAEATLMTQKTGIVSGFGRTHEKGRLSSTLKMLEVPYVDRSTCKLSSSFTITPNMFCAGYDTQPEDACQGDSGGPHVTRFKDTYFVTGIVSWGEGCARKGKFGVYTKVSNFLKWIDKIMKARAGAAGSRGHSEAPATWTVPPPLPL
Chain of factor Xa (P00743 41-180 partner limits assumed): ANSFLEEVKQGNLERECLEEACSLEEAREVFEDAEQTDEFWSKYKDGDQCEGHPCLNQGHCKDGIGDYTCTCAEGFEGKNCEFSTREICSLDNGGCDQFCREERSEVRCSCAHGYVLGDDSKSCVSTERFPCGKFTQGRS

[3] = Plasma concentration in rats after subcutaneous administration (HPLC); settings: rat
factor XIIa = biological target: T2, factor XIIa (Homo sapiens, UniProt P00748); experiment: Inhibition of factor XIIa (Ki); assay type: biochemical; settings: Table 26
T2 construct: glandular kallikrein, factor XIIa and plasma kallikrein
T2 sequence (P00748 373-615 limits assumed): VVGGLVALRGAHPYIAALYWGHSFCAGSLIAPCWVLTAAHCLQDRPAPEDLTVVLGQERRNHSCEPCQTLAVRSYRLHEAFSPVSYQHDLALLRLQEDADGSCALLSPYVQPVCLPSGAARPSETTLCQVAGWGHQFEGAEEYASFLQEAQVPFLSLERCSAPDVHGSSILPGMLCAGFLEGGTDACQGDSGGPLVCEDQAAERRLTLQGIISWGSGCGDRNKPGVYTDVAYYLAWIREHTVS

plasmin = biological target: T3, plasmin (Homo sapiens, UniProt P00747); experiment: Inhibition of plasmin (Ki); assay type: biochemical; settings: Table 26
T3 construct: trypsin and the related enzymes thrombin, plasmin, factor Xa, tPA
T3 sequence (P00747 581-810 limits assumed): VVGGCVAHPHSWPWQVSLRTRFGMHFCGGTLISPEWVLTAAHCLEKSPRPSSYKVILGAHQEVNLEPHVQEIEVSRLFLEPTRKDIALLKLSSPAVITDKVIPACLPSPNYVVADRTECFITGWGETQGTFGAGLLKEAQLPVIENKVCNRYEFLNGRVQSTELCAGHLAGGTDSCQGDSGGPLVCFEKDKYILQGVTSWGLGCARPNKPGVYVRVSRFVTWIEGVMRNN
T3 sequence (P00747 97-580 partner limits assumed): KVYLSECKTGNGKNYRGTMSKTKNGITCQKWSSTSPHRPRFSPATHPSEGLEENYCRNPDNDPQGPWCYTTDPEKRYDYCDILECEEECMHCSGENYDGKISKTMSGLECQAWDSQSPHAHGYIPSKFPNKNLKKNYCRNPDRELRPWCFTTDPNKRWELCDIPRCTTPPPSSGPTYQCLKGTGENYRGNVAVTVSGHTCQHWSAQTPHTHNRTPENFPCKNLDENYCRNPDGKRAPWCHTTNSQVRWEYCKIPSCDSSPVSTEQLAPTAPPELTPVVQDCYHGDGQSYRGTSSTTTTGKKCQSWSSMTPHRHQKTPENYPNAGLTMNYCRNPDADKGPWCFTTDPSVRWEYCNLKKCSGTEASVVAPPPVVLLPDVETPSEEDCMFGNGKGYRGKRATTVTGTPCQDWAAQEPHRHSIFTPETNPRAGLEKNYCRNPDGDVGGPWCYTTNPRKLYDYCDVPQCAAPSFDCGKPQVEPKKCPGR

trypsin = biological target: T4, trypsin (Bos taurus, UniProt P00760); experiment: Inhibition of trypsin (Ki); assay type: biochemical; settings: Table 26
T4 sequence (P00760 24-246): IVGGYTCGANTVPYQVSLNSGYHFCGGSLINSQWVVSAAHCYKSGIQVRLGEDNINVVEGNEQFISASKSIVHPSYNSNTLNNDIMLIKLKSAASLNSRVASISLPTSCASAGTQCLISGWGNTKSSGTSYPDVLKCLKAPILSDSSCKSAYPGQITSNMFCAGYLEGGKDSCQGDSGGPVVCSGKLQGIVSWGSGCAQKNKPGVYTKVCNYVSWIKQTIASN

T1 sequence (P03952 391-638 limits assumed, species assumed): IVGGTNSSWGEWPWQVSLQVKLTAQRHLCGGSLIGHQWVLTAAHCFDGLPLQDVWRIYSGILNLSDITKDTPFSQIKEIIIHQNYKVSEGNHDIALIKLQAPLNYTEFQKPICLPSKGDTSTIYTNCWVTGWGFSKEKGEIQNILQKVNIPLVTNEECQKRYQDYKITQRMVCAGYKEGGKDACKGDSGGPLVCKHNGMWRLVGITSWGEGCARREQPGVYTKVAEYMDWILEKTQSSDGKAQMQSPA
T1 sequence (P03952 20-390 partner limits assumed, species assumed): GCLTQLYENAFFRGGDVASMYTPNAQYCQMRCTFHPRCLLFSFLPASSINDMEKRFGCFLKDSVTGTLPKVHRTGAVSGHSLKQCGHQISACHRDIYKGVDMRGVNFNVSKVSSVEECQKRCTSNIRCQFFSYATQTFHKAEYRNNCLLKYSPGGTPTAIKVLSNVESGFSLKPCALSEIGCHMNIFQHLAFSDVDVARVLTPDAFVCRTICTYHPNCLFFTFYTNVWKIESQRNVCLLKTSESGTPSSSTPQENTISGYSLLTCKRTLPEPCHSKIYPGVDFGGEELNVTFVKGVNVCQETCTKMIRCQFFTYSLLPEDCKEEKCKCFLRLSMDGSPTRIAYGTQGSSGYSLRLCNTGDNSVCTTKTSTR

SMILES | concentration at 0.25 h [1] [ng/mL] | concentration at 0.5 h [1] [ng/mL] | concentration at 1 h [1] [ng/mL] | concentration at 2 h [1] [ng/mL] | concentration at 3 h [1] [ng/mL] | concentration at 4 h [1] [ng/mL] | Ki (plasma kallikrein) [µM] | Ki (thrombin) [µM] | LD50 at 168 h (in vivo; iv) [mg/kg] | LD50 at 168 h (in vivo; po) [mg/kg] | Ki (tPA) [µM] | Ki (glandular kallikrein) [µM] | concentration at 2 min ([2]; rat, plasma, iv, 1 mg/kg) [ng/mL] | concentration at 5 min ([2]; rat, plasma, iv, 1 mg/kg) [ng/mL] | concentration at 10 min ([2]; rat, plasma, iv, 1 mg/kg) [ng/mL] | concentration at 0.25 h ([2]; rat, plasma, iv, 1 mg/kg) [ng/mL] | Ki (factor Xa) [µM] | Ki (factor XIIa) [µM] | Ki (plasmin) [µM] | Ki (trypsin) [µM] | further results
N=C(N)c1cccc(CC(NS(=O)(=O)c2ccc3ccccc3c2)C(=O)N2CCCCC2C(=O)O)c1 (racemic) [Compound 83] | 133 | 79 | 50 | 38 | 25 | 23 | 32 | 0.26 | 272 | > 3000 | 205 | ~1000 | 1900 | 928 | 496 | 243 | 38 | > 1000 | 34 |  | concentration at 1.5 h [1]: 37 ng/mL; pharmacokinetic properties ([2]; in words, compared with NAPAP): improved pharmacokinetic properties; Concentration in plasma ([2]; rat, 120 min): 0 ng/mL; Concentration in plasma ([2]; rat, 180 min): 0 ng/mL; concentration at 0.5 h ([2]; rat, plasma, iv, 1 mg/kg): 150 ng/mL; concentration at 0.75 h ([2]; rat, plasma, iv, 1 mg/kg): 115 ng/mL; concentration at 1 h ([2]; rat, plasma, iv, 1 mg/kg): 85 ng/mL; concentration at 1.5 h ([2]; rat, plasma, iv, 1 mg/kg): 45 ng/mL; concentration at 0.25 h ([3]; plasma, sc, 5 mg/kg): 402 ng/mL; concentration at 0.5 h ([3]; plasma, sc, 5 mg/kg): 620 ng/mL; concentration at 0.75 h ([3]; plasma, sc, 5 mg/kg): 626 ng/mL; concentration at 1 h ([3]; plasma, sc, 5 mg/kg): 568 ng/mL; concentration at 1.5 h ([3]; plasma, sc, 5 mg/kg): 467 ng/mL; concentration at 2 h ([3]; plasma, sc, 5 mg/kg): 415 ng/mL; concentration at 3 h ([3]; plasma, sc, 5 mg/kg): 314 ng/mL; concentration at 4 h ([3]; plasma, sc, 5 mg/kg): 297 ng/mL
CC1CCN(C(=O)C(Cc2cccc(C(=N)N)c2)NS(=O)(=O)c2ccc3ccccc3c2)C(C(=O)O)C1 (racemic) [Compound 86] |  |  |  |  |  |  | 84 | 0.12 |  |  | 470 | > 1000 |  |  |  |  | 96 | > 1000 | 42 | 1.2 | 
N=C(N)c1cccc(CC(NS(=O)(=O)c2ccc3ccccc3c2)C(=O)N2Cc3ccccc3CC2C(=O)O)c1 (racemic) [Compound 134, N-α-(2-Naphtylsulfonyl)-3-amidino-(D,L)-phenylalanyl-1,2,3,4-tetrahydroisoquinoline-3-carboxylic acid] | 188 | 260 | 260 | 234 | 236 | 210 | 1.5 | 0.018 | 29 | > 3000 | > 1000 | 390 | 4440 | 1680 | 775 | 621 | 42 | > 1000 | 0.67 |  | concentration at 0.75 h [1]: 297 ng/mL; concentration at 5 h [1]: 157 ng/mL; concentration at 6 h [1]: 86 ng/mL; Concentration in plasma ([2]; rat, 90 min): 0 ng/mL; concentration at 0.5 h ([2]; rat, plasma, iv, 1 mg/kg): 79 ng/mL; concentration at 0.75 h ([2]; rat, plasma, iv, 1 mg/kg): 78 ng/mL; concentration at 1 h ([2]; rat, plasma, iv, 1 mg/kg): 10 ng/mL; concentration at 0.5 h ([3]; plasma, sc, 5 mg/kg): 35 ng/mL; concentration at 0.75 h ([3]; plasma, sc, 5 mg/kg): 72 ng/mL; concentration at 1 h ([3]; plasma, sc, 5 mg/kg): 79 ng/mL; concentration at 1.5 h ([3]; plasma, sc, 5 mg/kg): 92 ng/mL; concentration at 2 h ([3]; plasma, sc, 5 mg/kg): 145 ng/mL; concentration at 3 h ([3]; plasma, sc, 5 mg/kg): 285 ng/mL; concentration at 4 h ([3]; plasma, sc, 5 mg/kg): 268 ng/mL; concentration at 5 h ([3]; plasma, sc, 5 mg/kg): 248 ng/mL; Concentration in plasma ([3]; s.c. 5 mg/kg, 15 min): 0 ng/mL
CC1CCN(C(=O)C(Cc2cccc(C(=N)N)c2)NC(=O)CNS(=O)(=O)c2ccc3ccccc3c2)CC1 (racemic) [Compound 156, N-α-(2-Naphthylsulfonyl)-glycyl-3-amidino-(D,L)-phenylalanine-4-methylpiperidide] |  |  |  |  |  |  | 68 | 3.6 |  |  | 340 | > 1000 |  |  |  |  | 25 | 350 | 46 | 46 | 
CC1CCN(C(=O)C(Cc2cccc(CN)c2)NS(=O)(=O)c2ccc3ccccc3c2)CC1 (racemic) [Compound 182, N-α-(2-Naphthylsulfonyl)-3-aminomethyl-(D,L)-phenylalanyl-4-methylpiperidide] |  |  |  |  |  |  | > 1000 | 1.9 |  |  | > 1000 | 76 |  |  |  |  | 500 | < 1000 | 27 | 3.4 | 
CC1CCN(C(=O)C(Cc2cccc(N)c2)NS(=O)(=O)c2ccc3ccccc3c2)CC1 (racemic) [Compound 203] |  |  |  |  |  |  | > 1000 | 8.9 |  |  | > 1000 | > 1000 |  |  |  |  | 210 | 270 | > 1000 | > 1000 | 
